The target in one experiment is T1, MMP-2 (Homo sapiens, UniProt P08253).
T1 construct: made in house; host or cells: Pichia pastoris (strains KM71 / SMD1168, clone 24S; vector pHIL-D2)
T1 sequence (P08253 110-660): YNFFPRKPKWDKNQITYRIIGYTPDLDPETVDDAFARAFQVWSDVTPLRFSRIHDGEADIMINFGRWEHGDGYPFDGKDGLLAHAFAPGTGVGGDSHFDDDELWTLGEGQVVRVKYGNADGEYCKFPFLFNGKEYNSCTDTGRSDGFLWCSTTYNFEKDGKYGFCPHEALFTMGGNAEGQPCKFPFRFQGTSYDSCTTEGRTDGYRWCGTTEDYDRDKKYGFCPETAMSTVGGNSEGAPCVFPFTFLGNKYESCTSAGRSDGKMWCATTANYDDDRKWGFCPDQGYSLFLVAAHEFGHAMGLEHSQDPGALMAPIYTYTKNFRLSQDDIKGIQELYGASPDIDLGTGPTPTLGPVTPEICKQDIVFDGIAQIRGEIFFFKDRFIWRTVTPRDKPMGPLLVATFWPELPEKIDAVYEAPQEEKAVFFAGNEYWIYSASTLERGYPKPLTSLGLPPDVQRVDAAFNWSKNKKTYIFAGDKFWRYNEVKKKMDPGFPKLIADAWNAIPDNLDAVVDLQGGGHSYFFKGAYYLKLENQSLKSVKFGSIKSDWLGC
Put plainly: Determination of inhibition constant (Ki) for MMP-2, fluorogenic substrate assay. Format: biochemical. As to conditions: substrate Mca-Pro-Leu-Gly-Leu-Dpa-Ala-Arg-NH2, 37°C, pH 7.6, [S] = 1 µM, [MMP-2] = 0.4 nM. The source says: Recombinant MMP-2 was purified from the fermentation broth of yeast Pichia pastoris that carries the integrated MMP-2 gene into its chromosome. In brief, the full-length cDNA for MMP-2 was obtained by reverse transcription of RNA from human melanoma A375M cell line by the reverse transcriptase polymerase chain reaction (RT-PCR) using sequence specific oligonucleotides. The nucleotide sequence was confirmed by Taq cycle sequencing. The cDNA was ligated into the Pichia pastoris expression vector pHIL-D2 in such a way that the expression of pro-MMP-2 is under the control of the methanol inducible alcohol oxidase promoter. The expression construct was digested with either SalI or NsiI and used to transform the Pichia pastoris strains KM71 and SMD1168. A large-scale culture of a selected clone designated 24S was performed in a high cell density fermentor and the recombinant MMP-2 was purified from the culture supernatant by gelatin-sepharose 4B (Pharmacia). The enzyme is sufficiently pure at this stage for routine measurement of inhibition. If desired, however, the enzyme may be further purified by AcA 44 gel filtration (Spectra).
The active MMP-2 was obtained by activation of proMMP-2 at 37°C for 1 h with 4-aminophenylmercuric acetate which was then removed by a Sephadex G-50 spin column. The enzyme is assayed using a fluorogenic substrate, Mca-Pro-Leu-Gly-Leu-Dpa-Ala-Arg-NH2, at 37°C in 2.0 mL of assay buffer containing 50 mM Tris, pH 7.6, 0.2 M sodium chloride, 50 mM calcium chloride, 0.02% Brij-35, and 50 µM β-mercaptoethanol. The increase in fluorescence is monitored (λex 328 nm, λem 393 nm). Substrate and inhibitor stock solutions are made in DMF. The enzyme is added at the last to start the reaction. For routine measurement of a Ki value for a reversible, competitive inhibitor, the initial rates in the presence of at least four inhibitor concentrations (two inhibitor concentrations above Ki and two below Ki) are measured using [S] = 1 µM (<<Km) and [MMP-2] = 0.4 nM. Under these conditions, the measured Ki, app is close to true Ki.

A further experiment concerns the target T2, MMP-1 (Homo sapiens, UniProt P03956).
T2 construct: The active MMP-1 was obtained by treatment of proMMP-1 with trypsin; endogenous in cells; host or cells: human rheumatoid synovial fibroblasts stimulated with macrophage-conditioned medium
T2 sequence (P03956 100-469): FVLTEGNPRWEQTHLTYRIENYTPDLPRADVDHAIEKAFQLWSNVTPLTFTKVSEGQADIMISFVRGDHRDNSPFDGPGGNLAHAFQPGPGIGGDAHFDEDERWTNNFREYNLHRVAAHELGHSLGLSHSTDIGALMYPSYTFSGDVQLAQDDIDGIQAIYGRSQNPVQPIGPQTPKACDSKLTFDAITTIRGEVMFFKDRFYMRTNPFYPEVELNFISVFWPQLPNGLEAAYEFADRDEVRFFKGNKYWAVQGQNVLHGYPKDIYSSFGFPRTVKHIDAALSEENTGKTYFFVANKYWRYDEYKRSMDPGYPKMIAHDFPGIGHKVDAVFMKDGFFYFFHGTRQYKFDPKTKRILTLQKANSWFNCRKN
Put plainly: Determination of inhibition constant (Ki) for MMP-1, fluorogenic substrate assay. The experiment is classed as biochemical. Conditions: substrate Mca-Pro-Leu-Gly-Leu-Dpa-Ala-Arg-NH2, 37°C, pH 7.6, [S] = 1 µM, [MMP-1] = 0.8 nM. Here is the method: ProMMP-1 (EC 3.4.24.7; interstitial collagenase) was purified from culture medium of human rheumatoid synovial fibroblasts stimulated with macrophage-conditioned medium according to Okada, Y. et al., J. Biol. Chem. 261, 14245-14255 (1986). The active MMP-1 was obtained by treatment of proMMP-1 with trypsin (5 µg/mL) at 37°C for 30 minutes, followed by addition of soybean trypsin inhibitor (50 µg/mL).
The activated MMP-1 is assayed using a fluorogenic substrate, Mca-Pro-Leu-Gly-Leu-Dpa-Ala-Arg-NH2, Knight, C.G. et al., FEBS Lett. 296, 263-266 (1992), at 37°C in 2.0 mL of assay buffer containing 50 mM Tris, pH 7.6, 0.2 M sodium chloride, 50 mM calcium chloride, and 0.02% Brij-35. The increase in fluorescence due to cleavage of Gly-Leu peptide bond by MMP-3 was monitored with Perkin-Elmer LS50B Fluorimeter (λex 328 nm, λem 393 nm, excitation slit 2.5, emission slit 10). Substrate and inhibitor stock solutions were made in DMF. For determination of Ki values for MMP-1 inhibitors, a series of intermediate inhibitor solutions were prepared in DMF and 1 or 2 µL of the diluted inhibitor solution was mixed with 1 µL of 2 mM substrate solution in DMF in a quartz cuvette containing 2 mL of assay buffer. The enzyme (10 µL of 0.2 µM MMP-3 dilution in assay buffer) was added at the last to start the reaction. For routine measurement of a Ki value for a reversible, competitive inhibitor, the initial rates in the presence of at least four inhibitor concentrations (two concentrations above K; and two concentrations below Ki) were measured using [S] = 1 µM (<< Km) and [MMP-1] = 0.8 nM. Under these conditions, the measured Ki, app is close to true Ki.
The Ki for a competitive inhibitor is calculated using: v0/vi = (1 + [I]/Ki,app) and Ki = Ki,app/(1 + [S]/Km), where v0 is the initial rate in the absence of inhibitor, vi is the initial rate in the presence of inhibitor at the concentration of [I], [S] is the substrate concentration, and Km is the Michaelis constant. If slow binding is observed (i.e. if the approach to the binding equilibrium is slow), the final steady-state rate rather than the initial rate is taken as vi.

Molecules are shown by their SMILES. Where a name gives a salt, the structure may show the parent alone.

In the case of `CC(C)C[C@H](NC(=O)C(S)C(C)C)C(=O)N[C@@H](Cc1ccccc1)C(=O)O` (stereo in doubt) [Example 3, (S)-2-Mercapto-3-methylbutyroyl-(L)-leucyl-(L)-phenylalanine], the Ki at MMP-2 worked out at 784 nM; on MMP-1, 518 nM. Turning to `CSCC[C@H](NC(=O)C(S)C(C)C)C(=O)N[C@@H](Cc1ccccc1)C(=O)O` (stereo in doubt) [Example 4, (S)-2-Mercapto-3-methylbutyroyl-(L)-methionyl-(L)-phenylalanine], the Ki stood at 798 nM at MMP-2 and 153 nM on MMP-1. Regarding `CC(C)C(S)C(=O)N[C@@H](CCCCN)C(=O)N[C@@H](Cc1ccccc1)C(=O)O` (stereo in doubt) [Example 5, (S)-2-Mercapto-3-methylbutyroyl-(L)-lysyl-(L)-phenylalanine trifluoroacetic acid salt], the values for the Ki on MMP-2 and at MMP-1 were 1740 nM and 3910 nM, respectively. The matching figures for `CCCC(S)C(=O)N[C@@H](CCc1ccccc1)C(=O)N[C@@H](Cc1ccccc1)C(=O)O` (stereo partly shown) [Example 1, 2-Mercapto-pentanoyl-(L)-homo-phenylalanyl-(L)-phenylalanine]: 1800 nM and 5800 nM. The like results for `CC(C)[C@H](S)C(=O)N[C@@H](CCc1ccccc1)C(=O)N[C@@H](Cc1ccccc1)C(=O)O` [Example 2, (S)-2-Mercapto-3-methylbutyroyl-(L)-homo-phenylalanyl-(L)-phenylalanine] were, in that order, 731 nM and 5110 nM. At MMP-1, `CCCC(S)C(=O)N[C@@H](CCc1ccccc1)C(=O)N[C@@H](Cc1ccccc1)C(=O)NC` (stereo partly drawn) [Example 6, (S)-2-Mercaptopentanoyl-(L)-homo-phenylalanyl-(L)-phenylalanine N-methyl amide] returned a Ki of 360 nM. As to `CNC(=O)[C@H](Cc1ccccc1)NC(=O)[C@H](CCc1ccccc1)NC(=O)[C@@H](S)C(C)C` [Example 7, (S)-2-Mercapto-3-methylbutyroyl-(L)-homo-phenylalanyl-(L)-phenylalanine N-methyl amide], the Ki on MMP-2 came to 3.3 nM; on MMP-1, 465 nM.

(Values after patent EP1140984B1, “SELECTIVE INHIBITORS OF MMP-12” (Aventis Pharmaceuticals Inc., priority 1998, dated 2000).)
